Assays:
[1] = Distribution coefficient, log D at pH 7.4; assay type: physicochemical; details: octanol/water
Phospholipidosis = test: Minimal effective concentration for in vitro drug-induced phospholipidosis in fibroblasts; assay type: ADME, cell-based; details: fibroblast
Dipeptidyl peptidase 4 = Dipeptidyl peptidase 4 (Homo sapiens, UniProt P27487); test: Inhibition of DPP4
[2] = Mutagenic activity in Salmonella Typhimurium; assay type: toxicity; details: salmonella enterica subsp. enterica serovar typhimurium
Rattus norvegicus [3] = test: Reduction of blood glucose level in Zucker fatty (fa/fa) rat at 0.3 mg/kg, po administered 2 hrs before glucose challenge measured after 40 mins glucose challenge by oral glucose tolerance test; assay type: functional; parameters: scale not given: the % may be the effect or the level left
[4] = Clearance in Wistar rat at 1 mg/kg, iv; assay type: ADME, organism-based; parameters: dose 1 mg/kg, route intravenous; details: in vivo
[5] = Volume of distribution at steady state in Wistar rat at 1 mg/kg, iv; assay type: ADME, organism-based; parameters: dose 1 mg/kg, route intravenous; details: in vivo, read-out: Vdss
[6] = Half life in Wistar rat at 1 mg/kg, iv; assay type: ADME, organism-based; parameters: dose 1 mg/kg, route intravenous; details: in vivo
[7] = Oral bioavailability in Wistar rat at 3 mg/kg; assay type: ADME, organism-based; details: in vivo
[8] = Ratio of drug level in brain to plasma of Wistar rat; assay type: ADME
Rattus norvegicus [9] = test: Reduction of blood glucose level in po dosed Zucker fatty (fa/fa) rat administered 2 hrs before glucose challenge measured after 40 mins glucose challenge by oral glucose tolerance test; assay type: functional, organism-based

Chain of Dipeptidyl peptidase 4 (P27487 whole entry): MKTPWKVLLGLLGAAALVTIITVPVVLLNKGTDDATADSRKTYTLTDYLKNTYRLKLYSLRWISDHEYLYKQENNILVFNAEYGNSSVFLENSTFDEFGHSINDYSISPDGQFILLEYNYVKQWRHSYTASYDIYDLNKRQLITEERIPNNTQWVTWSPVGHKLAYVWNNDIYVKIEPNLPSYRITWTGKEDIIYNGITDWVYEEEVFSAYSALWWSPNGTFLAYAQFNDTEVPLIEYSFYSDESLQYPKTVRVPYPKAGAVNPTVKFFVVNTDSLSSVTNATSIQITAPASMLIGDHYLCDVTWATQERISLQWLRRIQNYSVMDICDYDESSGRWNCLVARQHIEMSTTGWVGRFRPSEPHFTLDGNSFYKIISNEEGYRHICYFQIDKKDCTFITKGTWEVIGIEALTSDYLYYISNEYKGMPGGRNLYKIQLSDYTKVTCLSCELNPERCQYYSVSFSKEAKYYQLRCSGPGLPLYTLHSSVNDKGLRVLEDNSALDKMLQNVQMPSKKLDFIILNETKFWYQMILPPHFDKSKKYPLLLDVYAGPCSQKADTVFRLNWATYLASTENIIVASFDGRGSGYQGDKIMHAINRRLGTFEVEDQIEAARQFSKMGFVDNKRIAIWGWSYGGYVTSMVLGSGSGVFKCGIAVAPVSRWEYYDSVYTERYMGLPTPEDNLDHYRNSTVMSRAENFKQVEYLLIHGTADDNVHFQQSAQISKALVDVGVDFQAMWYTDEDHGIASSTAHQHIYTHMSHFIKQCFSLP

logD [1]	IC50 (Dipeptidyl peptidase 4)	Structure (SMILES)	further results
0.8		COc1cc2c(cc1OC)[C@@H]1CC(N)[C@@H](c3ccccc3)CN1CC2 (mixture of isomers)	Phospholipidosis_MEC (Phospholipidosis): 5 µM
1.6	0.0017 µM	COc1cc2c(cc1OC)[C@@H]1CC(N)[C@@H](c3cc(C)ccc3C)CN1CC2 (mixture of isomers)	
	53 µM	COc1cc2c(cc1OC)[C@H]1C[C@@H](N)[C@H](c3cc(C)ccn3)CN1CC2	
0.3	0.019 µM	COc1cc2c(cc1OC)[C@@H]1CC(N)[C@@H](c3cc(C)ccn3)CN1CC2 (mixture of isomers)	Phospholipidosis_MEC (Phospholipidosis): 15 µM
1.6		COc1cc2c(cc1OC)[C@@H]1CC(N)[C@@H](c3cccc(CF)c3)CN1CC2 (mixture of isomers)	
0.1	0.0012 µM	COc1cc2c(cc1OC)[C@@H]1CC(N)[C@@H](c3cc(CF)ccn3)CN1CC2 (mixture of isomers)	Activity [2]: Toxic
2	5.5 µM	COc1cc2c(cc1OC)[C@@H]1CC(N)[C@@H](c3cccc(C(C)C)c3)CN1CC2 (mixture of isomers)	
1.7	0.061 µM	CCc1cccc([C@H]2CN3CCc4cc(OC)c(OC)cc4[C@@H]3CC2N)c1 (mixture of isomers)	
1.3		COc1cc2c(cc1OC)[C@@H]1CC(N)[C@@H](c3cccc(C)c3)CN1CC2 (mixture of isomers)	Phospholipidosis_MEC (Phospholipidosis): 2.5 µM; Activity (Rattus norvegicus [3]): 41%; clearance [4]: 87 mL/min/kg; Vd [5]: 42 L/kg; half-life [6]: 6.9 h; bioavailability [7]: 56%; Kp [8]: 5.8
	0.011 µM	COc1cc2c(cc1OC)[C@@H]1C[C@H](N)[C@@H](c3cc(C)ccn3)CN1CC2	clearance [4]: 118 mL/min/kg; Vd [5]: 12 L/kg; half-life [6]: 1.4 h; bioavailability [7]: 50%; Kp [8]: 0.7; Activity (Rattus norvegicus [9]): Dose-dependent effect
1.8	0.038 µM	COc1cc2c(cc1OC)[C@@H]1CC(N)[C@@H](c3cccc(C4CC4)c3)CN1CC2 (mixture of isomers)	
1.7		COc1cc2c(cc1OC)[C@@H]1CC(N)[C@@H](c3cccc(Cl)c3)CN1CC2 (mixture of isomers)	

Source: ChEMBL document CHEMBL1158520, “Aryl- and heteroaryl-substituted aminobenzo[a]quinolizines as dipeptidyl peptidase IV inhibitors” (Bioorg Med Chem Lett, 2010)
